# Experiment: Color toner: light fastness of image
# Format: physicochemical
# Conditions: xenon light 85,000 lx, 5 days, dye remaining ratio
# Description: A mixture of 3 parts by weight of each of the phthalocyanine compounds (Compounds 101, 102, 103 and 107) according to the invention and 100 parts by weight of a resin for toner (styrene-acrylate copolymer, trade name: Hymer TB-1000F, produced by Sanyo Chemical Industries, Ltd.) was pulverized in a ball mill and melt-blended by heating at 150° C. After cooling, the resulting solid was coarsely pulverized by a hammer mill and then finely pulverized by an air jet-type pulverizer. The particles were classified to select those having a particle size of 1 to 20 micrometer to prepare a toner. To 10 parts by weight of the toner, 900 parts by weight of carrier iron powder (trade name: FEV250/400, produced by Powdertech Co., Ltd.) was uniformly blended to prepare a developer. Each developer was prepared in the same manner as above except for using 3 parts by weight of dye or 6 parts by weight of pigment as a comparative coloring agent as shown in Table 7 below. Using the developer, duplicate was conducted by a dry type plain paper electrophotographic copying machine (trade name: NP-5000 produced by Canon Inc.).
# For the evaluation, by the developer using the color toner containing the compound according to the invention, a reflection image and a transmission image were prepared on paper and OHP sheet according to the above-described image forming method, respectively. The evaluation was conducted in the following manner. A toner adhesion amount was in a range of 0.7±0.05 mg/cm^2 for the evaluation.
# With the image formed, color tone and light fastness were evaluated. Regarding the color tone, the evaluation was visually conducted by a three-stage rating of best, good and poor. In Table 7, symbols ∘, Δ and × mean best color tone, good color tone and poor color tone, respectively. The light fastness was evaluated by measuring image density (Ci) just after the recording, irradiating the image with xenon light (85,000 1×) using Weatherometer (Atlas C. 165) for 5 days and then measuring again image density (Cf), and calculated a dye remaining ratio ([…]). The image density was measured by a reflection densitometer (X-Rite 310TR). In Table 7, symbols ∘, Δ and × mean the dye remaining ratio of 90% or more, the dye remaining ratio of less than 90% to 80% and the dye remaining ratio of less than 80%, respectively.
row,Compound,Light Fastness
1,Cc1ccc(Nc2ccc(Nc3ccc(C)cc3)c3c2C(=O)c2c(Nc4ccc(C)cc4)ccc(Nc4ccc(C)cc4)c2C3=O)cc1 [Comparative Dye 4],Δ (the dye remaining ratio of less than 90% to 80%)
2,C.I. Solvent Blue 38,∘ (the dye remaining ratio of 90% or more)
3,C.I. Solvent Blue 70,∘ (the dye remaining ratio of 90% or more)
4,CNc1ccc(O)c2c1C(=O)c1c(O)ccc(NC)c1C2=O [Comparative Dye 3],Δ (the dye remaining ratio of less than 90% to 80%)
